Experiments:
[1] = system: C57BL/6J mice; test: Y-maze test (spontaneous alternation behavior) after bilateral common carotid arteries occlusion; type: in vivo; details: oral, 7 days, FIG. 1
Experimental: (§1) Experimental Example: 10-week-old male C57BL/6J mice (CLEA Japan, Inc. approximately 25 g of average body weight per mouse) were preliminarily acclimated for 1 week, and provided for experiments. Citrulline and glutathione were obtained from KYOWA HAKKO BIO CO., LTD.
(§2) C57BL/6J mice were divided into a sham-operation group (Group 1) and a bilateral common carotid arteries occlusion group, which was performed under halothane anesthesia for 20 minutes. One day after reperfusion, the bilateral common carotid arteries occlusion group was further divided into a distilled water-treated group (Group 2), a low-dose citrulline-treated group (40 mg/kg: Group 3), a low-dose glutathione-treated group (40 mg/kg: Group 4), a high-dose citrulline-treated group (100 mg/kg: Group 5), a high-dose glutathione-treated group (100 mg/kg: Group 6), and a combination treatment group of a low dose of citrulline and a low dose of glutathione (each 40 mg/kg: Group 7). Each sample was orally administered for 12 days. One week after starting administration, learning memory-improving effects were examined by a Y-maze test, a passive avoidance test, and a novel object recognition test. After evaluating learning memory functions, the hippocampus was removed and viability of hippocampal nerve cells was evaluated.
In the Y-maze test, a Y-maze apparatus with three arms (50×16×32 cm) was used. Mice were placed at any one arm of the Y-maze and were allowed to explore freely through the maze for 8 minutes. The sequence of arm entries was recorded. The number of entries into each arm was counted during the measurement time, which was defined as the total number of entries. Of them, the successive entry into the three different arms was examined, and this number was defined as the spontaneous alternation behavior number. The spontaneous alternation behavior number was divided by (the total number of arm entries minus two), and then multiplied by 100, which was defined as the spontaneous alternation behavior rate (Alternation) and used as an index for spontaneous alternation behavior.

[2] = system: C57BL/6J mice; test: Novel object recognition test after bilateral common carotid arteries occlusion; type: in vivo; details: oral, 7 days, FIG. 3
Experimental: as §1, §2
The novel object recognition test was performed after mice were individually acclimated to the open field apparatus (35×25×35 cm) for 2 days. During training, mice were allowed to explore freely for 10 minutes in an apparatus where two identical objects were symmetrically placed. After 1 hour, one object was replaced by a novel object, and mice were allowed to explore freely for 5 minutes. Object exploration was defined as standing on the objects, touching the object with the nose, or sniffing the object within 1 cm from the object. A ratio of the frequency of exploring the familiar or novel object over the total exploration frequency was calculated, and used as an index for visual recognition memory.

[3] = system: hippocampal nerve cells; test: Evaluation of viability of hippocampal nerve cells after bilateral common carotid arteries occlusion; type: in vivo, mice; details: oral, 12 days, CA1 pyramidal cell layer, FIG. 4
Experimental: as §1, §2
Twelve days after bilateral occlusion of the common carotid arteries, mice were anesthetized with pentobarbital sodium, and perfused with ice-cold phosphate buffer (PBS, pH 7.4) until the blood in the body was completely removed. Immediately, mice were perfused with a fixative solution containing 4% paraformaldehyde. The brain tissues were fixed at 4° C. for 24 hours, and coronal sections having a thickness of 50 μm were prepared. Serial sections containing the hippocampus were stained with propidium iodide (PI, 5 μmol/L) dissolved in PBS and observed under a fluorescent microscope. Surviving and non-surviving nerve cells in the CA1 pyramidal cell layer of the hippocampus were counted at 1.4 to 1.8 mm posterior to bregma, and cells with PI-positive nuclei and typical morphological characteristics were defined as […]. The cell viability was calculated from a ratio to the average number of surviving nerve cells in Group 1.

[4] = system: C57BL/6J mice; test: Passive avoidance test after bilateral common carotid arteries occlusion; type: in vivo; details: oral, 7 days, FIG. 2
Experimental: as §1, §2
The passive avoidance test was performed using a box consisting of dark (25×25×25 cm) and light compartments (14×10×25 cm) and being equipped with an electrical stimulation apparatus at the bottom of the dark compartment. During training, as soon as the mouse entered the dark compartment from the light compartment, the door was closed, and an electrical stimulation (0.3 mA, for 2 seconds) was delivered. Twenty four hours after training, the mouse was placed again in the light compartment, and the latency time spent in the light compartment was recorded with a maximum latency of 300 seconds.

[5] = high dose 100 mg/kg alone (Group 5 citrulline, Group 6 glutathione)
[6] = low dose 40 mg/kg alone (Group 3 citrulline, Group 4 glutathione), vs distilled water Group 2
[7] = low dose 40 mg/kg alone (Group 3 citrulline, Group 4 glutathione)
[8] = low dose 40 mg/kg alone (Group 3 citrulline, Group 4 glutathione), vs Group 2

SMILES | spontaneous alternation behavior rate (Alternation) [1, 5] | spontaneous alternation behavior rate (Alternation) [1, 6] | frequency of exploring the novel object [2, 5] | frequency of exploring the novel object [2, 7] | viability of hippocampal nerve cells [3, 5] | viability of hippocampal nerve cells [3, 8] | time spent in the light compartment (Latency time) [4, 5] | time spent in the light compartment (Latency time) [4, 8]
N[C@@H](CCC(=O)N[C@@H](CS)C(=O)NCC(=O)O)C(=O)O [glutathione] | remarkably improved effect of memory behavior | Alternation cannot be improved | remarkably improved effect of memory behavior | frequency of exploring the novel object cannot be increased | nerve cell-protecting effect | viability of hippocampal nerve cells cannot be improved | remarkably improved effect of memory behavior | latency time cannot be improved
NC(=O)NCCC[C@H](N)C(=O)O [citrulline] | remarkably improved effect of memory behavior | Alternation cannot be improved | remarkably improved effect of memory behavior | frequency of exploring the novel object cannot be increased | nerve cell-protecting effect | viability of hippocampal nerve cells cannot be improved | remarkably improved effect of memory behavior | latency time cannot be improved

Source: patent US10369186B2, “Method of treating decline in brain function comprising coadministration of citrulline and glutathione” (KYOWA HAKKO BIO CO., LTD., priority 2012, dated 2019)
